Test results published in patent publication US20090105283A1, “3-HYDROQUINAZOLIN-4-ONE DERIVATIVES FOR USE AS STEAROYL CoA DESATURASE INHIBITORS” (priority 2007, published 2009).

These compounds were tested against T1, stearoyl-CoA desaturase (SCD) (Rattus norvegicus, UniProt P07308) (assay: SCD assay with rat liver microsomes ([3H]stearoyl CoA, adapted from Talamo and Bloch)). Details: Table 1; rat liver microsomes 0.2 mg/ml assay final, [3H]stearoyl CoA substrate, 30 min preincubation, 45 min reaction, room temperature.
T1 construct: The microsomes were quickly thawed and added to assay buffer so that a concentration of 0.4 mg/ml was achieved; from tissue
T1 sequence (P07308 1-358): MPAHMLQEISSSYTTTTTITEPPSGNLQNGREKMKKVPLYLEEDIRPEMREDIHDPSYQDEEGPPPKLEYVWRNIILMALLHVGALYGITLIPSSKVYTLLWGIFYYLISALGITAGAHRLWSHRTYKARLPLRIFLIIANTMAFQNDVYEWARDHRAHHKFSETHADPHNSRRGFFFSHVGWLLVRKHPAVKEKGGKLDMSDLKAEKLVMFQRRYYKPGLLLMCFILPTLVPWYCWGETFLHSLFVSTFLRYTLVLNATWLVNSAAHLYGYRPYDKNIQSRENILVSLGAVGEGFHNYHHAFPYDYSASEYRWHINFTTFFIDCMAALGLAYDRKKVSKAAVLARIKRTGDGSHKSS
Format: biochemical
Excerpt: Male Spraque Dawley Rats were placed on regimented fasting protocol for one week to stimulate SCD enzymatic activity. 48-hour periods were alternated between feeding and fasting to induce and down-regulate SCD activity with SCD activity being induced via carbohydrate rich diet prior to liver perfusion and collection.
The rats were anesthetized with Isoflurane inhalation anesthetic, the liver perfused with cold phosphate buffered saline (PBS), weighed, and chilled in cold homogenization buffer (250 mM sucrose, 10 mM Tris, 1 mM EDTA, pH 7.6.
The livers were finely minced and placed in homogenization tube. 40 mL of homogenization buffer was added to the homogenization tube and the liver homogenized and centrifuged in a pre-chilled […] for 10 min at 4° C.
Following centrifugation, the supernatant was collected and the pellet removed and discarded. The supernatant was centrifuge at 10,000 G for 35 minutes. Following centrifugation, the supernatant was collect and the pellet discarded. The supernatant was then centrifuged in a pre-chilled 45-Ti rotor at 130,000 G (41,000 RPM) for 90 minutes at 4° C.
The supernatant was then aspirated off and the collected microsomal pellet washed in 25 mL of Glycerol PBS (1×PBS 7.4, 20% Glycerol) and resuspended in 4-5 volumes of Glycerol PBS.
The protein concentration of the microsomal preparation was determined by BCA assay (Pierce) and the microsomes were aliquoted and stored at −80° C.
Biobeads were ground to a smaller size in a mortar and pestle and resuspended in 3.6% TCA. The beads were then filtered through […] mesh.
SCD was determined in the desaturase assay buffer. This assay buffer contained 0.1 M Tris buffer, pH 7.2, 2 mM NADH, 4.8 mM ATP, 0.5 mM CoA, 4.8 mM MgCl2, and 0.1% BSA.
1 μl of each compound of Formula I was added to an assay plate by a low volume (0.5-10 μL) multichannel pipette. A DMSO control was also prepared. The microsomes were quickly thawed and added to assay buffer so that a concentration of 0.4 mg/ml was achieved (0.2 mg/ml assay final). 50 μl of the microsome suspension in assay buffer was then added into each well in the compound assay plate, the plate was covered, and the microsomes preincubated with the compounds for 30 minutes on the orbital shaker, 50-75 rpm, at room temperature.
The reaction mixtures were then incubated for 45 minutes on the orbital shaker at 50-75 rpm at room temperature.
The reaction was terminated by the addition of 10 μl of 21% trichloroacetic acid (TCA) to the reaction mixture followed incubation on the orbital shaker for 30 minutes at 50-75 rpm at room temperature followed by centrifugation for 5 minutes at 3700 rpm.
50 μl of a 6% Bio-Bead suspension in H2O was added to the reaction mixture and the assay plate was sealed. The Bio-Bead mixture was incubated on the orbital shaker for 1 hour, 100-150 rpm at room temperature, and then the mixture was centrifuged at 2000 g for 5 minutes to pellet the Bio-Beads.
25 μl of the supernatant was harvested from each well and transferred to a detection plate. 100 μl of OptiPhase SuperMix scinitillation cocktail (containing sufficient NaOH to neutralize the TCA) was added and the solutions mixed by vigorous shaking (300-400 rpm) for 5 minutes at room temperature.

Row | IC50 [nM] | Compound
1 | 90 | O=C(Nc1ccc2c(=O)n(Cc3ccc(Cl)cc3)cnc2c1)OCc1ccccc1 [XLVIII, N-{3-[(4-chlorophenyl)methyl]-4-oxo(3-hydroquinazolin-7-yl)}(phenylmethoxy)carboxamide]
2 | 11000 | CN(CCOC(=O)Nc1ccc2ncn(Cc3ccc(Cl)c(Cl)c3)c(=O)c2c1)Cc1ccccc1 [LXXXIV, N-{3-[(3,4-dichlorophenyl)methyl]-4-oxo(3-hydroquinazolin-6-yl)}{2-[methylbenzylamino]ethoxy}carboxamide]
3 | 360 | CN(C)CC(=O)OCC(=O)Nc1ccc2ncn(Cc3ccc(Cl)c(Cl)c3)c(=O)c2c1 [LXXXVI, (N-{3-[(3,4-dichlorophenyl)methyl]-4-oxo-3-hydroquinazolin-6-yl}carbamoyl)methyl 2-(dimethylamino)acetate]
4 | 7640 | CC(=O)OCC(=O)Nc1ccc2c(=O)n(Cc3ccc(F)c(F)c3)cnc2c1 [CII, (N-{3-[(3,4-difluorophenyl)methyl]-4-oxo-3-hydroquinazolin-7-yl}carbamoyl)methyl acetate]
5 | 700 | COc1ccccc1COC(=O)Nc1ccc2c(=O)n(Cc3ccc(Cl)c(Cl)c3)cnc2c1 [LXI, N-{3-[(3,4-dichlorophenyl)methyl]-4-oxo(3-hydroquinazolin-7-yl)}[(2-methoxyphenyl)methoxy]carboxamide]
6 | 5420 | O=C(CSc1ncccn1)Nc1ccc2ncn(Cc3ccc(Cl)c(Cl)c3)c(=O)c2c1 [LV, N-{3-[(3,4-dichlorophenyl)methyl]-4-oxo(3-hydroquinazolin-6-yl)}-2-pyrimidin-2-ylthioacetamide]
7 | 120 | O=C(Nc1ccc2c(=O)n(Cc3ccc(F)c(Cl)c3)cnc2c1)OCc1cccnc1 [LXXIV, N-{3-[(3-chloro-4-fluorophenyl)methyl]-4-oxo(3-hydroquinazolin-7-yl)}(3-pyridylmethoxy)carboxamide]

Same assay, conditions: Table 2 (Example 21, procedures of Example 20); rat liver microsomes, [3H]stearoyl CoA substrate

Row | IC50 [nM] | Compound
8 | 3100 | O=C(CO)Nc1ccc2ncn(CCCOc3ccc(Cl)cc3)c(=O)c2c1 [compound 70, N-(3-(3-(4-chlorophenoxy)propyl)-4-oxo-3,4-dihydroquinazolin-6-yl)-2-hydroxyacetamide]
9 | 890 | O=C(O)C(=O)Nc1ccc2ncn(Cc3ccc(Cl)c(Cl)c3)c(=O)c2c1 [compound 107, 2-(3-(3,4-dichlorobenzyl)-4-oxo-3,4-dihydroquinazolin-6-ylamino)-2-oxoacetic acid]
10 | 44 | Cc1ccccc1OCCCn1cnc2ccc(NC(=O)OCc3ccccc3)cc2c1=O [compound 52, benzyl 4-oxo-3-(3-(o-tolyloxy)propyl)-3,4-dihydroquinazolin-6-ylcarbamate]
11 | 340 | O=C(CO)Nc1ccc2ncn(CCOc3ccccc3Cl)c(=O)c2c1 [compound 58, N-(3-(2-(2-chlorophenoxy)ethyl)-4-oxo-3,4-dihydroquinazolin-6-yl)-2-hydroxyacetamide]
12 | 4500 | O=C(CO)Nc1ccc2ncn(CCCc3ccccc3)c(=O)c2c1 [compound 27, 2-hydroxy-N-(4-oxo-3-(3-phenylpropyl)-3,4-dihydroquinazolin-6-yl)acetamide]
13 | 290 | O=C(CO)Nc1ccc2ncn(CCOc3cc(Cl)ccc3Cl)c(=O)c2c1 [compound 42, N-(3-(2-(2,5-dichlorophenoxy)ethyl)-4-oxo-3,4-dihydroquinazolin-6-yl)-2-hydroxyacetamide]
14 | 480 | C[C@@H](c1ccc(Cl)c(C(F)(F)F)c1)n1cnc2ccc(NC(=O)CO)cc2c1=O [compound 102, (S)—N-(3-(1-(4-chloro-3-(trifluoromethyl)phenyl)ethyl)-4-oxo-3,4-dihydroquinazolin-6-yl)-2-hydroxyacetamide]
15 | 2300 | O=C(Nc1ccc2ncn(Cc3ccc(Cl)c(Cl)c3)c(=O)c2c1)[C@@H](O)c1ccccc1 [compound 100, (S)—N-(3-(3,4-dichlorobenzyl)-4-oxo-3,4-dihydroquinazolin-6-yl)-2-hydroxy-2-phenylacetamide]
16 | 4800 | O=C(Nc1ccc2ncn(Cc3ccc(Cl)c(Cl)c3)c(=O)c2c1)[C@@H](O)Cc1ccccc1 [compound 97, (S)—N-(3-(3,4-dichlorobenzyl)-4-oxo-3,4-dihydroquinazolin-6-yl)-2-hydroxy-3-phenylpropanamide]
